According to patent US4755510A, “Novel anticonvulsive tetrahydro-1,2,4-oxadiazine-5-thion derivatives and use” (Richter Gedeon Vegyeszeti Gyar R.T., priority 1984, dated 1988):
Like-named read-outs stand apart in the source and are kept apart here.

Tests used:
Acute toxicity (LD50) = type: in vivo; conditions: mouse, in vivo, po; one dose, observation through 14 days; probit analysis; read-out: Acute tox. LD50
Experimental: (§1) The compound to be tested was suspended in 2 percent aqueous Tween 80 (polyoxyethylene sorbitane monolaurate) solution and it was orally administered to the animals through a bougie in a dose of 30 mg/kg when the anticonvulsive activity was tested, while in a dose of 120 mg/kg when the neurotoxic activity was examined. The effect triggered was measured after 1 hour of the administration. Male CFLP (LATI) mice having a weight of 18 to 22 g were used in the tests.
(§2) The toxicity of the compounds was examined after the administration of 1000 mg/kg of the test compound in one dose by an observation through 14 days. The LD50 value (50 percentile lethal dose) was calculated by probite analysis on the basis of the percentile ratio of the animals died within the 14 days.

Male CFLP (LATI) mice [1] = test: Maximal electroshock (MES), protection from tonic extensoric spasm of the lower limbs; type: in vivo; conditions: Mus musculus, po; for ED50: read-out: Anticonvulsive activity MES ED50; for inhibition at 30 mg/kg: read-out: MES inhibition (%)
Experimental: as §1
The animals were shocked with a corneal electrode (20 mA, 0.2 sec.) (H. Schachs Elektronik, Marchs, Augstatten, Germany, "schockreizgerat" typ. 207) according to the method of E. A. Swinyard et al. (J. Pharmacol. Exp. Ther. 106, 318 (1952)]. 100% of the control animals responded to the stimulus by the tonic extensoric spasm of the lower limbs. The lack of these occurences was attributed to the protection obtained by the treatment.
MES: maximal electroshock

Male CFLP (LATI) mice [2] = test: Spasm stimulated by Pentetrazole (PTT); type: in vivo; conditions: po; for ED50: Mus musculus, read-out: Anticonvulsive activity PTT TE (tonic extensoric spasm) ED50
Experimental: as §1
According to the method of G. M. Everett and R. K. Richard [J. Pharmacol. Exp. Ther., 81, 402, (1944)] the test animals were treated with 125 mg/kg of Pentetrazole (pentamethylene tetrazole) after 1 hour of the administration of the compound to be tested. The lack of the clonic spasm (KI) and the tonic extensoric spasm of the lower limbs (TE) was attributed to the protection obtained as a result of the treatment.
PTT: inhibition of the spasm stimulated by pentetrazole
TE: tonic extensoric spasm

Male CFLP (LATI) mice [3] = test: Spasm stimulated by strychnine (Str); type: in vivo; conditions: Mus musculus, po, 1 h, read-out: Anticonvulsive activity Str (spasm stimulated by strychnine) ED50
Experimental: as §1
According to the method of T. L. Kerley et al. [J. Pharmacol. Exp. Ther. 132, 360 (1961)] the test animals were i. p. treated with 2.5 mg/kg of strychnine after 1 hour of the administration of the active ingredient to be tested.
Str: inhibition of the spasm stimulated by strychnine

[4] = Neurotoxicity (muscle uncoordination), rotating bar (FR); design: species or system mice (male CFLP (LATI)); conditions: mouse, in vivo, po
Experimental: as §1
The change of the coordinated muscle motion was examined on a rotating bar according to the method of C. J. Carr [J. Pharmacol. Exp. Ther., 121, 354 (1957)] (diameter: 20 mm, number of revolutions: 12/minute). The trained control animals could stay on the bar for 120 seconds. After 1 hour of the administration of the test compound, it was examined which percent of the animals fell down from the rotating bar within 120 seconds.

Male CFLP (LATI) mice [5] = test: Acute toxicity (LD50); type: in vivo; conditions: one dose, observation through 14 days; probit analysis
Experimental: as §1, §2

Row | SMILES | LD50 at 336 h (Acute toxicity (LD50)) | ED50 (Male CFLP (LATI) mice [1]; 1 h) | ED50 (Male CFLP (LATI) mice [2]; 1 h) | Anticonvulsive activity PTT K1 (clonic spasm) ED50 (Male CFLP (LATI) mice [2]; 1 h) | also measured
1 | CC(=O)N1O[C@H](C)C(=S)N[C@@H]1c1ccccc1 [B] | 1000 mg/kg | 16.1 mg/kg | 12.6 mg/kg |  | 
2 | CC(=O)N1O[C@H](C)C(=S)N[C@@H]1c1ccc(N(C)C)cc1 (relative stereo) [D] | 1000 mg/kg | 30 mg/kg | 9.9 mg/kg | 0 mg/kg | 
3 | CC(=O)N1O[C@H](C)C(=S)N[C@@H]1c1ccccc1C (relative stereo) [C, 2-Acetyl-3-(2-methylphenyl)-6-methyl-tetrahydro-1,2,4-oxadiazine-5-thion] | 1000 mg/kg | 10 mg/kg | 4.3 mg/kg |  | ED50 (Male CFLP (LATI) mice [3]): 25.6 mg/kg
4 | O=C1NC(=O)C(c2ccccc2)(c2ccccc2)N1 [Compound K1, Diphenyl hydantoin, reference compound] |  |  |  |  | TD50 at 1 h [4]: 47.7 mg/kg; Acute tox. LD50 (Male CFLP (LATI) mice [5]): 278 mg/kg; ED50 (Male CFLP (LATI) mice [1]; 1 hour after administration, corneal electrode 20 mA, 0.2 sec): 8.3 mg/kg; ED50 (Male CFLP (LATI) mice [2]; Pentetrazole 125 mg/kg 1 hour after administration, tonic extensoric spasm): 9.9 mg/kg
5 | CC[C@H]1ON(C(C)=O)[C@@H](c2ccccc2)NC1=S (relative stereo) [F] | 1000 mg/kg |  | 15.4 mg/kg | 0 mg/kg | inhibition at 30 mg/kg (Male CFLP (LATI) mice [1]; 1 h): 40%
6 | CC(=O)N1OCC(=S)NC1c1ccccc1 (centres unmarked) [E, 2-Acetyl-3-phenyl-tetrahydro-1,2,4-oxadiazine-5-thion] | 1000 mg/kg |  | 16.6 mg/kg | 0 mg/kg | inhibition at 30 mg/kg (Male CFLP (LATI) mice [1]; 1 h): 10%
7 | CC(=O)N1OCC(=O)NC1c1ccccc1 (centres unmarked) [Compound K2, 2-Acetyl-3-phenyl-tetrahydro-1,2,4-oxadiazine-5-one, reference compound] |  | 22.7 mg/kg | 13.4 mg/kg |  | TD50 at 1 h ([4]; rotating bar 12/minute, 120 seconds, 1 hour after administration, read-out: Neurotox. FR (rotating bar) ED50): 130 mg/kg
8 | CC(=O)N1O[C@H](C)C(=S)N[C@@H]1c1ccccc1 (relative stereo) [A] | 1000 mg/kg | 11.9 mg/kg | 6.1 mg/kg |  | 
